Read-outs that look alike come from different tables or passages of the source. Numbered stars: 1 amine (or outer) side, 2 acyl side, 3 side chain; on linkers, the order of the positions; unused ones are H or OH. Bridge positions count the residues as written; N and C are the ends. Square brackets hold non-standard residues; d marks the D form. Peptide text beside a SMILES is read from it. * marks the point of attachment. Ahppa(3S,4S) = O=C(C[C@H](O)[C@H](Cc1ccccc1)N[*:1])[*:2]; Butanoyl(3,3-Me2) = CC(C)(C)CC(=O)*; Isopropoxycarbonyl = CC(C)OC(=O)*; CH2CH2 = C(C[*:2])[*:1]
Columns and labels:
cathepsin D = cathepsin D (Homo sapiens, UniProt P07339); assay: cathepsin D inhibition assay with fluorogenic substrate (tight-binding kinetics); type: biochemical
Description: (§1) Typically, 485 μl of 50 mM Gly-HC1 buffer, pH 3.5 (in the case of cathepsin D), or 100 mM sodium acetate buffer, pH 5.0 (in the case of plasmepsin 2), was mixed with 5 μl of DMSO and 5 μl of titrated protease (final concentration 0.2-10 nM) and incubated 3 min at 37° C. The reaction was initiated by the addition of 5 μl of substrate stock solution in DMSO. Increase in fluorescence intensity at the emission maximum of 487 nm (excitation wavelength was 349 nm) was monitored as a function of time using an Aminco Bowman-2 luminescence spectrometer (SLM Instruments, Inc.).
(§2) The initial rate of hydrolysis was calculated by a second degree polynomial fit using SLM AB2 2.0 operating software. Kinetic parameters were determined by nonlinear regression fitting of initial rate versus substrate concentration data to the Michaelis-Menten equation using the program Enzfitter version 1.05 (Leatherbarrow, R. J. 1987. Enzfitter, a program for non-linear regression analysis. Elsevier Scientific, New York).
For inhibition studies inhibitors were prepared as stock solutions at different concentrations in DMSO. In a typical experiment 485 μl of the appropriate buffer was mixed with 5 μl of inhibitor stock solution and 5 μ of titrated protease (final concentration 0.2-10 nM) and preincubated 3 min at 37° C. The reaction was initiated by the addition of 5 μl of substrate stock solution in DMSO. For data analysis the mathematical model for tight-binding inhibitors (Williams, J. W., and Morrison, J. F. Methods Enzymol. 63:437 (1979)) was used. The data were fitted by nonlinear regression analysis to the equation
V=V0 /2Et ({[K1 (1+S/Km)+It -Et ]^2
+4Ki (1+S/Km)Et }^1/2 -[Ki (1+S/Km)+It

plasmepsin I (PMI) = plasmepsin I (PMI) (Plasmodium falciparum, UniProt P39898); assay: biochemical
plasmepsin II (PMII) = plasmepsin II (PMII) (Plasmodium falciparum, UniProt P46925); assay: biochemical
Description: as §1, §2
For inhibition studies inhibitors were prepared as stock solutions at different concentrations in DMSO. In a typical experiment 485 μl of the appropriate buffer was mixed with 5 μl of inhibitor stock solution and 5 μ of titrated protease (final concentration 0.2-10 nM) and preincubated 3 min at 37° C. The reaction was initiated by the addition of 5 μl of substrate stock solution in DMSO. […]

cathepsin D, sequence (P07339 65-412): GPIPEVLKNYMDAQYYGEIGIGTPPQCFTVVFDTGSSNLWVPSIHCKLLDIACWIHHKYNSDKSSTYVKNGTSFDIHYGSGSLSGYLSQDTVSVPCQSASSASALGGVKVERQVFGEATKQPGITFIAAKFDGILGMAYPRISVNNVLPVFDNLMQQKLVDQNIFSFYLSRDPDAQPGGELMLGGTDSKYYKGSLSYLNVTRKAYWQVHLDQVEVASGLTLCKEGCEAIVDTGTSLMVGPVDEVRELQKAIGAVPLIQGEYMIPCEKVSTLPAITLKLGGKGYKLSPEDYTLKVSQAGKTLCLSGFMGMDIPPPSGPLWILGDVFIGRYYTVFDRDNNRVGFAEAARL
plasmepsin I (PMI), sequence (P39898 124-452): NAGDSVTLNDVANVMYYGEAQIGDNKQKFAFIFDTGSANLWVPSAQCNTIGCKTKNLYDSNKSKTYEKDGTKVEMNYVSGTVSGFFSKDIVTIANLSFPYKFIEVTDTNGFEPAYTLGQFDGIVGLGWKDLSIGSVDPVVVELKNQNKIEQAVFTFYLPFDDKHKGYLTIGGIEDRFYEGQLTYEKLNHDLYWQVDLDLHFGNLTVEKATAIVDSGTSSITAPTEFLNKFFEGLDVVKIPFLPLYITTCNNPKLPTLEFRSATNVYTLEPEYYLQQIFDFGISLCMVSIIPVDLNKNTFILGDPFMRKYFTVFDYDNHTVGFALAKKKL
plasmepsin II (PMII), sequence (P46925 125-453): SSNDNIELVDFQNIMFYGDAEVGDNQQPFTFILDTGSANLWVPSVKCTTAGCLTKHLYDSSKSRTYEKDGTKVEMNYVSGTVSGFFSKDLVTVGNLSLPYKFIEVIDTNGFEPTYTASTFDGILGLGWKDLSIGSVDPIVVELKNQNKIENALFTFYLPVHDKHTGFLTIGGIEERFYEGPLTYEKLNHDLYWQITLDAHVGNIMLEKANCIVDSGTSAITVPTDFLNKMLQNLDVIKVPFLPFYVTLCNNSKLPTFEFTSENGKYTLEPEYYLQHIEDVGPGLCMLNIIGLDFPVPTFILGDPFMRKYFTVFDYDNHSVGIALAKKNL

For CCCCCNC(=O)[C@@H](NC(=O)C[C@H](O)[C@H](Cc1ccccc1)NC(=O)CCCC)C(C)C, the Ki (cathepsin D) was 400 nM.
Compound CC(C)C[C@H](NC(=O)[C@H](C)NC(=O)C[C@H](O)[C@H](Cc1ccccc1)NC(=O)[C@@H](NC(=O)CN(C)C)C(C)C)C(N)=O has an IC50 (cathepsin D) of 1000 nM.
CC(C)C[C@H](NC(=O)[C@H](C)NC(=O)C[C@H](O)[C@H](Cc1ccccc1)NC(=O)[C@@H](NC(=O)Cc1ccccn1)C(C)C)C(N)=O gave a Ki (cathepsin D) of 20 nM.
Work on CC(C)C[C@H](NC(=O)[C@H](C)NC(=O)C[C@H](O)[C@H](Cc1ccccc1)NC(=O)[C@@H](NC(=O)OC(C)C)C(C)C)C(N)=O yielded an IC50 (cathepsin D) of 20 nM.
With CC(C)[C@@H]1NC(=O)C[C@H](O)[C@H](Cc2ccccc2)NC(=O)[C@@H](NC(=O)[C@@H](NC(=O)CC(C)(C)C)C(C)C)CSCCCSC[C@@H](C(=O)NCC(N)=O)NC1=O the Ki (cathepsin D) was 1.5 nM.
For CC(C)[C@@H]1NC(=O)C[C@H](O)[C@H](Cc2ccccc2)NC(=O)[C@@H](NC(=O)[C@@H](NC(=O)CC(C)(C)C)C(C)C)CSCCCCSC[C@@H](C(=O)NCC(N)=O)NC1=O, the Ki (cathepsin D) was 0.1 nM.
Work on CC(C)C[C@H](NC(=O)[C@@H](NC(=O)C[C@H](O)[C@@H]1CCCCNC(=O)C[C@H](NC(=O)CC(C)(C)C)C(=O)N[C@@H](C(C)C)C(=O)N1)C(C)C)C(=O)NCC(N)=O yielded a Ki (cathepsin D) of 2.5 nM.
With CC(C)C[C@H](NC(=O)[C@H](C)NC(=O)C[C@H](O)[C@H](Cc1ccccc1)NC(=O)[C@@H](NC(=O)[C@@H](NC(=O)OC(C)C)C(C)C)C(C)C)C(N)=O (Isopropoxycarbonyl-VV[Ahppa(3S,4S)]AL-NH2) the Ki (cathepsin D) was 0.24 nM.
CC(C)[C@@H]1NC(=O)C[C@H](O)[C@H](Cc2ccccc2)NC(=O)[C@@H](NC(=O)[C@@H](NC(=O)CC(C)(C)C)C(C)C)CSSC[C@@H](C(=O)NCC(N)=O)NC1=O ({Butanoyl(3,3-Me2)}-VC[Ahppa(3S,4S)]VCG-NH2; disulfide 2-5) gave a Ki (cathepsin D) of 150 nM.
In the case of CC(C)[C@@H]1NC(=O)C[C@H](O)[C@H](Cc2ccccc2)NC(=O)[C@@H](NC(=O)[C@@H](NC(=O)CC(C)(C)C)C(C)C)CSCCSC[C@@H](C(=O)NCC(N)=O)NC1=O ({Butanoyl(3,3-Me2)}-VC[Ahppa(3S,4S)]VCG-NH2; linker 2-5 via CH2CH2), the Ki (cathepsin D) is reported as 1.9 nM.
With CC(C)[C@@H]1NC(=O)C[C@H](O)[C@H](Cc2ccccc2)NC(=O)[C@@H](NC(=O)[C@@H](NC(=O)CC(C)(C)C)C(C)C)CCC(=O)NCCCC[C@@H](C(=O)NCC(N)=O)NC1=O ({Butanoyl(3,3-Me2)}-VE[Ahppa(3S,4S)]VKG-NH2; lactam 2-5) the Ki (cathepsin D) was 2.3 nM.
CC(C)[C@@H]1NC(=O)C[C@H](O)[C@H](Cc2ccccc2)NC(=O)[C@@H](NC(=O)[C@@H](NC(=O)CC(C)(C)C)C(C)C)CCCCNC(=O)CC[C@@H](C(=O)NCC(N)=O)NC1=O ({Butanoyl(3,3-Me2)}-VK[Ahppa(3S,4S)]VEG-NH2; lactam 2-5) was tested, and the Ki (cathepsin D) was 1.4 nM.
For CC(C)C[C@H](NC(=O)[C@@H](NC(=O)C[C@H](O)[C@H](Cc1ccccc1)NC(=O)[C@H](CC(=O)O)NC(=O)[C@@H](NC(=O)CC(C)(C)C)C(C)C)C(C)C)C(=O)NCC(N)=O [(10), Tha--Val--Asp--Pst--Val--Leu--Gly--NH2] ({Butanoyl(3,3-Me2)}-VD[Ahppa(3S,4S)]VLG-NH2), the Ki (cathepsin D) was 2.1 nM.
CC(C)C[C@H](NC(=O)[C@H](C)NC(=O)C[C@H](O)[C@H](Cc1ccccc1)NC(=O)[C@@H](NC(=O)c1ccccn1)C(C)C)C(N)=O [drawing 15] gave a Ki (cathepsin D; target named only in b168/b175 (cathepsin D), elsewhere implied, read-out: Ki) of 21 nM.
CC(C)C[C@H](NC(=O)[C@@H](NC(=O)C[C@H](O)[C@@H]1CCCCNC(=O)CC[C@H](NC(=O)CC(C)(C)C)C(=O)N[C@@H](C(C)C)C(=O)N1)C(C)C)C(=O)NCC(N)=O [drawing 29] was tested, and the Ki (cathepsin D) was 0.26 nM.
For CC(C)C[C@H](NC(=O)[C@@H](NC(=O)C[C@H](O)[C@@H]1CCCCNC(=O)CC[C@H](NC(=O)CC(C)(C)C)C(=O)N[C@@H](C(C)C)C(=O)N1)C(C)C)C(=O)NCC(N)=O [drawing 40], the Ki (plasmepsin I (PMI)) was 22 nM and the Ki (plasmepsin II (PMII)) was 0.2 nM.
In the case of CC(C)C[C@H](NC(=O)[C@H](C)NC(=O)C[C@H](O)[C@H](Cc1ccccc1)NC(=O)[C@@H](NC(=O)c1ccccn1)C(C)C)C(N)=O [drawing 42], the Ki (plasmepsin I (PMI)) is reported as 16 nM and the Ki (plasmepsin II (PMII)) is reported as 0.9 nM.
